Source: patent US20260209234A1, “SUBSTITUTED DIHYDROPYRROLO[3,4-D]PYRIMIDINE COMPOUNDS AND THEIR USE IN TREATING MEDICAL CONDITIONS” (Karuna Therapeutics, Inc., priority 2022, published 2026)

Assays:
hM4 receptors = biological target: T1, hM4 receptors (Homo sapiens, UniProt P08173); test: Human M4 PAM pERK assay; format: cell-based; settings: CHO cells expressing hM4; EC20 of acetylcholine (10 nM final); TR-FRET
T1 construct: expressed in transfected cells; host or cells: CHO cells
T1 sequence (P08173 1-479): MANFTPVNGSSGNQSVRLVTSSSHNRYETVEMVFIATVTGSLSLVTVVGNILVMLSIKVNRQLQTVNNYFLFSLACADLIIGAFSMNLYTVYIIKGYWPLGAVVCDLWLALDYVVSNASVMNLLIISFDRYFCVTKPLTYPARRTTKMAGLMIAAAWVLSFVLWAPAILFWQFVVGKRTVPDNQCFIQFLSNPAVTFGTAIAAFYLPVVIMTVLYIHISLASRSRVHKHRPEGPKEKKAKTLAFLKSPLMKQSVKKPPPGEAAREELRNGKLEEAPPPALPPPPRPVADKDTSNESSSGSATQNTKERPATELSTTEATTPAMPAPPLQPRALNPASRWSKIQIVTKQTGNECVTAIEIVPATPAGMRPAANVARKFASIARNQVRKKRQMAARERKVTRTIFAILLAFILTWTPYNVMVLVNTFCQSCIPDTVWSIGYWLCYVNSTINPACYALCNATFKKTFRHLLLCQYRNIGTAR
Protocol: (§1) Chinese hamster ovary (CHO) cells expressing either hM4 or rM4 receptors were frozen in assay ready vials (5×10^6 cells/vial) after bulking-up in culture. The day before an assay, vial(s) were thawed and cells seeded in 384 well white proxiplates at 1000/well for hM4 cells and at 2000/well for rM4 cells, in 10 μL of growth media (Hams/F12 with glutamax and 10% FCS) and incubated overnight at 37° C./5% CO2.
(§2) On the following morning, the growth media was removed by ‘flicking out’ over a bin, patting the inverted plate onto tissue, and then replacing with 10 μL of wash media (Hams/F12 with glutamax and 8 mM HEPES, NB: serum free). Then, the wash media was removed in the same way and replaced with 8 μL/well of the serum free media. Plates were then re-incubated for a further 4 hours at 37° C./5% CO2.
(§3) Compounds for testing were solubilized to 10 mM in DMSO and compound addition plates, consisting of ten-point concentration response curves (CRC) in duplicate points (10 μM top concentration, 1/2 log dilution series), were prepared by acoustic dispensing and the compound management group.
(§4) After the 4-hour incubation in serum free media, a 4 μL aliquot of the 3× compound solution containing an EC20 of acetylcholine (10 nM final concentration) was added to the cell plate using a 384 well plate to plate transfer. Then, the plate lid was replaced, and the cells incubated for 5 mins at 37° C./5% CO2. Following this final incubation, all cellular processes were stopped by the addition of 4 μL/well of lysis and blocking buffer and plates were incubated for 30 minutes at RT on an orbital shaker (gentle setting). Then, a final addition of 4 μL/well of antibody detection mix, containing both the Europium-Cryptate (donor) and d2 (acceptor) tagged detection components, was added followed by a further 2-hour incubation at RT, and then the plate was read using a TR-FRET (time resolved fluorescence resonance energy transfer) based protocol.

human M4 receptor = biological target: T2, human M4 receptor (Homo sapiens, UniProt P08173); test: M4 GTPγS PAM assay; format: biochemical; settings: membranes of CHO-K1 cells stably expressing human M4; EC20 acetylcholine 40 nM; 35S-GTP
T2 construct: expressed in transfected cells
T2 sequence (P08173 1-479): T1 sequence (P08173 1-479)
Protocol: The M4 GTPγS PAM method was used. Membranes were prepared for GTPgS binding assays from CHO-K1 cells stably expressing human M4 receptor. Briefly, cells were grown in 5-layer cell culture flasks. Cells were washed with 50 mL of PBS and then dissociated with 0.05% trypsin. Dissociated cells were then collected by centrifugation at 650×g for 8 minutes at 4° C. Pellets were washed again in PBS by centrifugation and resuspended in 30 mL of 20 mM HEPES, 10 mM EDTA, pH 7.4. After sitting on ice for 30 min, membranes were collected by centrifugation at 50000×g for 15′ at 4° C., resuspended in 30 mL of 20 mM HEPES, 0.1 mM EDTA, pH 7.4 and collected again by centrifugation. Pellets were then washed twice by centrifugation in 30 mL of 20 mM HEPES, pH 7.4, and stored at −80° C. until the day of the assay. On the day of the assay, pellets were thawed on ice and resuspended in 1 mL of 20 mM HEPES, pH 7.4, 10 mM MgCl2, 100 mM NaCl using dounce homogenization. Membrane protein concentration is determined by BCA protein assay (Promega, Madison, WI) according to Promega guidelines.
On the day of the assay, serial dilutions of test PAM compounds were brought up in assay buffer (20 mM HEPES, 10 mM MgCl2, 100 mM NaCl) at 4× final assay concentration. […] of membrane homogenates (containing […] of membrane protein) were prepared in assay buffer supplemented with GDP at 4× final assay concentration (final assay concentration of GDP is 5 μM for M2 and 0.1 μM for M4) and dispensed into 96 well polypropylene, U-bottom Greiner plates. […] of vehicle or test PAM compound at 4× of final assay concentration diluted in the assay buffer were added to membrane and plates are incubated for 10-15 minutes at room temperature with gentle shaking. Then, […] of EC20 acetylcholine in assay buffer at 4× final assay concentration was added to assay plates (EC20 final assay concentrations was 40 nM for human M4).
Plates were then incubated, with shaking, for an additional 10-15 minutes. […] of 0.4 nM 35S-GTP (Perkin Elmer, Waltham, MA) in assay buffer was added to assay mixtures. The binding reaction is left on the shaker for 1 hour at room temperature. Membranes in assay reactions were then transferred to GF/C filter plates (Unifilter, Perkin Elmer) and washed three times using a FilterMate Harvester (Perkin Elmer) with cold assay buffer containing no GDP. Filter plates were then dried at 40° C. overnight followed by the addition of […] of Beta Plate Scintillation liquid. Plates are top and bottom sealed before being read on TopCount scintillation counter (Perkin Elmer, Waltham, MA).

rM4 receptors = biological target: T3, rM4 receptors (Rattus norvegicus, UniProt P08485); test: Rat M4 PAM pERK assay; format: cell-based; settings: CHO cells expressing rM4; EC20 of acetylcholine (10 nM final); TR-FRET
T3 construct: expressed in transfected cells; host or cells: CHO cells
T3 sequence (P08485 1-478): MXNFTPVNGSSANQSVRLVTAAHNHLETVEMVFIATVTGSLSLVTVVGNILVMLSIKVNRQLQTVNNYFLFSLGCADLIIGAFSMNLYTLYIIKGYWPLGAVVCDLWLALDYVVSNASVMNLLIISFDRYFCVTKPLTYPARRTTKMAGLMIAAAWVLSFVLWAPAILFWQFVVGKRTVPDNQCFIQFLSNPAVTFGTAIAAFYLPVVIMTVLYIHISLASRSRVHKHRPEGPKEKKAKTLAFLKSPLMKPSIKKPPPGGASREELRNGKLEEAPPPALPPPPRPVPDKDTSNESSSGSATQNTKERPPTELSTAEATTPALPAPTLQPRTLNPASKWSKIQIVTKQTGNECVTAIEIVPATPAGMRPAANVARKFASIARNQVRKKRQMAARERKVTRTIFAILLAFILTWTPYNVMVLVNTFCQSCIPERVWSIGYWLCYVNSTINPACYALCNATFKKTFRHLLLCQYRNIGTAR
Protocol: as §1, §2, §3, §4

EC50 (hM4 receptors) [nM] | EC50 (human M4 receptor) [nM] | EC50 (rM4 receptors) [nM] | SMILES
500 to 2000 | ≤ 100 | ≥ 2000 | COc1nc(OC)c2c(n1)C(C)N(C(=O)CC1CN(c3ccnc(C(F)(F)F)c3)C1)C2 (single isomer, unassigned) [Compound I-70, 1-(2,4-Dimethoxy-7-methyl-5,7-dihydro-6H-pyrrolo[3,4-d]pyrimidin-6-yl)-2-(1-(2-(trifluoromethyl)pyridin-4-yl)azetidin-3-yl)ethan-1-one]
100 to 500 | 100 to 500 | 100 to 500 | COc1nc(C#N)nc2c1C(C)N(C(=O)CC1CN(c3cccc(F)c3F)C1)C2 (single isomer, unassigned) [Compound I-19, 6-(2-(1-(2,3-Difluorophenyl)azetidin-3-yl)acetyl)-4-methoxy-5-methyl-6,7-dihydro-5H-pyrrolo[3,4-d]pyrimidine-2-carbonitrile]
≤ 100 | ≤ 100 | 100 to 500 | COc1nc(C#N)nc2c1C(C)N(C(=O)CC1CN(c3ccc(C#N)cc3)C1)C2 (single isomer, unassigned) [Compound I-23, 6-(2-(1-(4-Cyanophenyl)azetidin-3-yl)acetyl)-4-methoxy-5-methyl-6,7-dihydro-5H-pyrrolo[3,4-d]pyrimidine-2-carbonitrile]
≤ 100 | ≤ 100 | 500 to 2000 | COc1nc(C#N)nc2c1C(C)N(C(=O)CC1CN(c3ccnc(C4CC4)c3)C1)C2 (single isomer, unassigned) [Compound I-12, 6-(2-(1-(2-Cyclopropylpyridin-4-yl)azetidin-3-yl)acetyl)-4-methoxy-5-methyl-6,7-dihydro-5H-pyrrolo[3,4-d]pyrimidine-2-carbonitrile]
500 to 2000 | 500 to 2000 | ≥ 2000 | COc1nc(OC)c2c(n1)C(C)N(C(=O)CC1CN(c3ccnc(C(F)(F)F)c3)C1)C2 (single isomer, unassigned) [Compound I-71, 1-(2,4-Dimethoxy-7-methyl-5,7-dihydro-6H-pyrrolo[3,4-d]pyrimidin-6-yl)-2-(1-(2-(trifluoromethyl)pyridin-4-yl)azetidin-3-yl)ethan-1-one]
≥ 2000 | ≥ 2000 | ≥ 2000 | COc1nc2c(c(OC)n1)C(C)N(C(=O)CC1CN(c3ccc(C#N)cc3)C1)C2 (single isomer, unassigned) [Compound I-65, 4-(3-(2-(2,4-dimethoxy-5-methyl-5,7-dihydro-6H-pyrrolo[3,4-d]pyrimidin-6-yl)-2-oxoethyl)azetidin-1-yl)benzonitrile]
≤ 100 | 100 to 500 | 100 to 500 | COc1nc(C#N)nc2c1C(C)N(C(=O)CC1CN(c3ccnc(C(C)(C)O)c3)C1)C2 (single isomer, unassigned) [Compound I-30, 6-(2-(1-(2-(2-Hydroxypropan-2-yl)pyridin-4-yl)azetidin-3-yl)acetyl)-4-methoxy-5-methyl-6,7-dihydro-5H-pyrrolo[3,4-d]pyrimidine-2-carbonitrile]
100 to 500 | 100 to 500 | 500 to 2000 | COc1nc(C#N)nc2c1C(C)N(C(=O)CC1CN(c3ccncc3F)C1)C2 (single isomer, unassigned) [Compound I-29, 6-(2-(1-(3-Fluoropyridin-4-yl)azetidin-3-yl)acetyl)-4-methoxy-5-methyl-6,7-dihydro-5H-pyrrolo[3,4-d]pyrimidine-2-carbonitrile]
≥ 2000 | ≥ 2000 | – | Cc1nc2c(c(OC3CC3)n1)CN(C(=O)CC1CN(c3ccnc(C(F)(F)F)c3)C1)C2 [Compound I-49, 1-(4-Cyclopropoxy-2-methyl-5,7-dihydro-6H-pyrrolo[3,4-d]pyrimidin-6-yl)-2-(1-(2-(trifluoromethyl)pyridin-4-yl)azetidin-3-yl)ethan-1-one]
≤ 100 | ≤ 100 | ≤ 100 | COc1nc(C#N)nc2c1C(C)N(C(=O)CC1CN(c3ccnc(C(F)(F)F)c3)C1C)C2 (single isomer, unassigned) [Compound I-36, 4-Methoxy-5-methyl-6-(2-(2-methyl-1-(2-(trifluoromethyl)pyridin-4-yl)azetidin-3-yl)acetyl)-6,7-dihydro-5H-pyrrolo[3,4-d]pyrimidine-2-carbonitrile]
100 to 500 | 100 to 500 | 500 to 2000 | COc1nc(C#N)nc2c1C(C)N(C(=O)CC1CN(c3cnnc(C(F)(F)F)c3)C1)C2 (single isomer, unassigned) [Compound I-25, 4-Methoxy-5-methyl-6-(2-(1-(6-(trifluoromethyl)pyridazin-4-yl)azetidin-3-yl)acetyl)-6,7-dihydro-5H-pyrrolo[3,4-d]pyrimidine-2-carbonitrile]
≤ 100 | ≤ 100 | 100 to 500 | COc1nc(C#N)nc2c1C(C)N(C(=O)CC1CN(c3ccnc(C(F)(F)F)c3)C1C)C2 (single isomer, unassigned) [Compound I-37, 4-Methoxy-5-methyl-6-(2-(2-methyl-1-(2-(trifluoromethyl)pyridin-4-yl)azetidin-3-yl)acetyl)-6,7-dihydro-5H-pyrrolo[3,4-d]pyrimidine-2-carbonitrile]
≥ 2000 | ≥ 2000 | – | COc1nc(C)nc2c1CN(C(=O)CC1(F)CN(c3ccnc(C(F)(F)F)c3)C1)C2 [Compound I-42, 2-(3-Fluoro-1-(2-(trifluoromethyl)pyridin-4-yl)azetidin-3-yl)-1-(4-methoxy-2-methyl-5,7-dihydro-6H-pyrrolo[3,4-d]pyrimidin-6-yl)ethan-1-one]
